Test results: US20210115104A1, “AMYLIN ANALOGUES” (Zealand Pharma A/S, priority 2015, published 2021)
*1 amine or outer side, *2 acyl side, *3 side chain or, on linkers, in order; H or OH if unused. Where a SMILES comes first, the peptide text is derived from it. Bridges are numbered along the chain shown (N, C = ends). [ ]: non-standard residue; d: D form. The star is where a group is joined. C20 diacid = O=C(O)CCCCCCCCCCCCCCCCCCC(=O)*; γGlu = O=C(O)[C@H](CCC(=O)[*:2])N[*:1]; Hyp = O=C(O)[C@@H]1C[C@@H](O)CN1; NMeI = CC[C@H](C)[C@H](NC)C(=O)O; Aad = N[C@@H](CCCC(=O)O)C(=O)O; Sar = CNCC(=O)O

Tests used:
[1] = target: T1, human calcitonin receptor (hCTR2) (Homo sapiens, UniProt P30988); experiment: hCTR2 cAMP assay (AlphaScreen) in COS7 cells; assay type: cell-based; conditions: cAMP induction, COS7 cells expressing hCTR2; Table 1; read-out: hCTR2 EC50
T1 construct: expressed in transfected cells
T1 sequence (P30988 25-474): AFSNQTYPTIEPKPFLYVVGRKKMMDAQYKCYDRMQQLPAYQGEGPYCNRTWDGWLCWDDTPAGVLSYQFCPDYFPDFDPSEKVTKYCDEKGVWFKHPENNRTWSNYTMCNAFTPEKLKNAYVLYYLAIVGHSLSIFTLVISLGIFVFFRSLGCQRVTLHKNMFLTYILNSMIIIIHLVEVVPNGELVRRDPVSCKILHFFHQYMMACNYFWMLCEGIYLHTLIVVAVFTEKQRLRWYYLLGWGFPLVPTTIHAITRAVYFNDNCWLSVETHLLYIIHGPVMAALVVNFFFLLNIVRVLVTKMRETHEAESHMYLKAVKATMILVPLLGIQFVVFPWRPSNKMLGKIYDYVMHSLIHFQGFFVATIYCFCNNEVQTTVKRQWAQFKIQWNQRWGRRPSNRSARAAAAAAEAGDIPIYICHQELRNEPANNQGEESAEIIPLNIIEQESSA
Outline: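 Stable hCTR2 clone in RAMP-naïve COS7 cells stimulated 15 min at 37 °C with increasing peptide concentrations in Tyrode buffer pH 7.4 containing IBMX and 0.1% casein. cAMP in lysates measured by AlphaScreen; EC50 from 4-parameter logistic fit.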

[2] = target: T2, human amylin receptor 3 (hAMYR3), hCTR2 co-expressed with hRAMP3 (Homo sapiens, UniProt O60896+P30988); experiment: hAMYR3 cAMP assay (AlphaScreen) in COS7 cells; assay type: cell-based; conditions: cAMP induction, COS7 cells expressing hAMYR3; Table 1; read-out: hAMYR3 EC50
T2 construct: expressed in transfected cells
T2 sequence (P30988 25-474): T1 sequence (P30988 25-474)
T2 sequence (O60896 24-148 partner): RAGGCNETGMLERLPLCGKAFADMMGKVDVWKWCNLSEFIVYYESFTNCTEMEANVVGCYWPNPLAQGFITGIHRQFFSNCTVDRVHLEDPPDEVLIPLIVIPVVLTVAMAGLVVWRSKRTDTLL
Outline: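 Stable COS7 clone co-expressing hCTR2 and hRAMP3 was exposed to increasing peptide concentrations in Tyrode buffer (pH 7.4) with 100 µM IBMX and 0.1% casein for 15 min at 37 °C. Lysate cAMP was measured by AlphaScreen; EC50 came from 4-parameter logistic fitting.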

[3] = Assessment of chemical stability (RP-HPLC normalized purity); assay type: physicochemical; conditions: 7 days, 40° C., Table 1; for Normalized purity after 7 days, 40° C., pH 4: pH 4, 0.2 mg/ml; for Normalized purity after 7 days, 40° C., pH 6: pH 6, 0.2 mg/ml; for Normalized purity after 7 days, 40° C., pH 7.5: pH 7.5, 0.2 mg/ml; for Normalized purity after 7 days, 40° C., pH 9: pH 9, 0.2 mg/ml
Outline: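 Peptides at 0.2 mg/ml in water adjusted to pH 4, 6, 7.5 or 9, incubated at 40° C for 7 days. Main-peak area-% by RP-HPLC (C8 ammonium formate or C18 TFA gradient, UV 220 nm), normalized to T=0 as 100.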

| Compound | EC50 [1] [nM] | EC50 [2] [nM] | Normalized purity after 7 days, 40° C., pH 4 [3] | Normalized purity after 7 days, 40° C., pH 6 [3] | Normalized purity after 7 days, 40° C., pH 7.5 [3] | Normalized purity after 7 days, 40° C., pH 9 [3] |
| --- | --- | --- | --- | --- | --- | --- |
| CC[C@H](C)[C@@H](C(=O)N[C@@H](CC(C)C)C(=O)N[C@@H](CO)C(=O)N[C@@H](CO)C(=O)N[C@H](C(=O)N[C@@H](CCC(=O)O)C(=O)N[C@H](C(=O)NCC(=O)N[C@@H](CO)C(=O)N[C@@H](CC(N)=O)C(=O)N[C@H](C(=O)N1CCC[C@H]1C(N)=O)[C@@H](C)O)C(C)C)[C@@H](C)O)N(C)C(=O)[C@H](C)NC(=O)CN(C)C(=O)[C@H](Cc1ccccc1)NC(=O)[C@H](CO)NC(=O)[C@H](CO)NC(=O)[C@H](CCCNC(=N)N)NC(=O)[C@H](CCC(N)=O)NC(=O)[C@H](CC(C)C)NC(=O)[C@H](Cc1ccccc1)NC(=O)[C@H](CC(=O)O)NC(=O)[C@H](C)NC(=O)[C@H](CC(C)C)NC(=O)[C@H](CCCNC(=N)N)NC(=O)[C@H](CCC(N)=O)NC(=O)[C@@H](NC(=O)[C@H](C)NC(=O)[C@@H]1CSSC[C@H](NC(=O)[C@H](CCCNC(=N)N)NC(=O)CC[C@H](NC(=O)CCCCCCCCCCCCCCCCCCC(=O)O)C(=O)O)C(=O)N[C@@H](CC(N)=O)C(=O)N[C@@H]([C@@H](C)O)C(=O)N[C@@H](C)C(=O)N[C@@H]([C@@H](C)O)C(=O)N1)[C@@H](C)O [Compound 65, [19CD]-isoGlu-R-C( )-NTAT-C( )-ATQRLADFLQRSSF-Gly(Me)-A-Ile(Me)-LSSTEVGSNTP-NH2] ({C20 diacid-γGlu}-RCNTATCATQRLADFLQRSSF[Sar]A[NMeI]LSSTEVGSNTP-NH2; disulfide 2-7) | 0.14 | 0.26 | A (A = >90%) | A (A = >90%) | A (A = >90%) | A (A = >90%) |
| CC[C@H](C)[C@@H](C(=O)N[C@@H](CC(C)C)C(=O)N[C@@H](CO)C(=O)N[C@@H](CO)C(=O)N[C@H](C(=O)N[C@@H](CCC(=O)O)C(=O)N[C@H](C(=O)NCC(=O)N[C@@H](CO)C(=O)N[C@@H](CC(N)=O)C(=O)N[C@H](C(=O)N1C[C@H](O)C[C@H]1C(N)=O)[C@@H](C)O)C(C)C)[C@@H](C)O)N(C)C(=O)[C@H](C)NC(=O)CN(C)C(=O)[C@H](Cc1ccccc1)NC(=O)[C@H](CO)NC(=O)[C@H](CO)NC(=O)[C@H](CCCNC(=N)N)NC(=O)[C@H](CCC(N)=O)NC(=O)[C@H](CC(C)C)NC(=O)[C@H](Cc1ccccc1)NC(=O)[C@H](CCCC(=O)O)NC(=O)[C@H](C)NC(=O)[C@H](CC(C)C)NC(=O)[C@H](CCCNC(=N)N)NC(=O)[C@H](CCC(N)=O)NC(=O)[C@@H](NC(=O)[C@H](C)NC(=O)[C@@H]1CSSC[C@H](NC(=O)[C@H](CCCNC(=N)N)NC(=O)CC[C@H](NC(=O)CCCCCCCCCCCCCCCCCCC(=O)O)C(=O)O)C(=O)N[C@@H](CC(N)=O)C(=O)N[C@@H]([C@@H](C)O)C(=O)N[C@@H](C)C(=O)N[C@@H]([C@@H](C)O)C(=O)N1)[C@@H](C)O [Compound 86, [19CD]-isoGlu-R-C( )-NTAT-C( )-ATQRLA-Aad-FLQRSSF-Gly(Me)-A-Ile(Me)-LSSTEVGSNT-Hyp-NH2] ({C20 diacid-γGlu}-RCNTATCATQRLA[Aad]FLQRSSF[Sar]A[NMeI]LSSTEVGSNT[Hyp]-NH2; disulfide 2-7) | 0.1 | 0.15 | A (A = >90%) | A (A = >90%) | A (A = >90%) | A (A = >90%) |

Further lines, results first:

| EC50 [1] [nM] | EC50 [2] [nM] | Normalized purity after 7 days, 40° C., pH 4 [3] | Normalized purity after 7 days, 40° C., pH 6 [3] | Normalized purity after 7 days, 40° C., pH 7.5 [3] | Normalized purity after 7 days, 40° C., pH 9 [3] | Compound |
| --- | --- | --- | --- | --- | --- | --- |
| 0.12 | 0.17 | A (A = >90%) | A (A = >90%) | B (B = 70-90%) | B (B = 70-90%) | CC[C@H](C)[C@@H](C(=O)N[C@@H](CC(C)C)C(=O)N[C@@H](CO)C(=O)N[C@@H](CO)C(=O)N[C@H](C(=O)N[C@@H](CCC(=O)O)C(=O)N[C@H](C(=O)NCC(=O)N[C@@H](CO)C(=O)N[C@@H](CO)C(=O)N[C@H](C(=O)N1C[C@H](O)C[C@H]1C(N)=O)[C@@H](C)O)C(C)C)[C@@H](C)O)N(C)C(=O)[C@H](C)NC(=O)CN(C)C(=O)[C@H](Cc1ccccc1)NC(=O)[C@H](CO)NC(=O)[C@H](CO)NC(=O)[C@H](CCCNC(=N)N)NC(=O)[C@H](CCC(N)=O)NC(=O)[C@H](CC(C)C)NC(=O)[C@H](Cc1ccccc1)NC(=O)[C@H](Cc1c[nH]cn1)NC(=O)[C@H](C)NC(=O)[C@H](CC(C)C)NC(=O)[C@H](CCCNC(=N)N)NC(=O)[C@H](CCC(N)=O)NC(=O)[C@@H](NC(=O)[C@H](C)NC(=O)[C@@H]1CSSC[C@H](NC(=O)[C@H](CCCNC(=N)N)NC(=O)CC[C@H](NC(=O)CCCCCCCCCCCCCCCCCCC(=O)O)C(=O)O)C(=O)N[C@@H](CC(N)=O)C(=O)N[C@@H]([C@@H](C)O)C(=O)N[C@@H](C)C(=O)N[C@@H]([C@@H](C)O)C(=O)N1)[C@@H](C)O [Compound 69, [19CD]-isoGlu-R-C( )-NTAT-C( )-ATQRLAHFLQRSSF-Gly(Me)-A-Ile(Me)-LSSTEVGSST-Hyp-NH2] ({C20 diacid-γGlu}-RCNTATCATQRLAHFLQRSSF[Sar]A[NMeI]LSSTEVGSST[Hyp]-NH2; disulfide 2-7) |
| 0.13 | 0.28 | A (A = >90%) | A (A = >90%) | A (A = >90%) | A (A = >90%) | CC[C@H](C)[C@@H](C(=O)N[C@@H](CC(C)C)C(=O)N[C@@H](CO)C(=O)N[C@@H](CO)C(=O)N[C@H](C(=O)N[C@@H](CCC(=O)O)C(=O)N[C@H](C(=O)NCC(=O)N[C@@H](CO)C(=O)NCC(=O)N[C@H](C(=O)N1CCC[C@H]1C(N)=O)[C@@H](C)O)C(C)C)[C@@H](C)O)N(C)C(=O)[C@H](C)NC(=O)CN(C)C(=O)[C@H](Cc1ccccc1)NC(=O)[C@H](CO)NC(=O)[C@H](CO)NC(=O)[C@H](CCCNC(=N)N)NC(=O)[C@H](CCC(N)=O)NC(=O)[C@H](CC(C)C)NC(=O)[C@H](Cc1ccccc1)NC(=O)[C@H](CC(=O)O)NC(=O)[C@H](C)NC(=O)[C@H](CC(C)C)NC(=O)[C@H](CCCNC(=N)N)NC(=O)[C@H](CCC(N)=O)NC(=O)[C@@H](NC(=O)[C@H](C)NC(=O)[C@@H]1CSSC[C@H](NC(=O)[C@H](CCCNC(=N)N)NC(=O)CC[C@H](NC(=O)CCCCCCCCCCCCCCCCCCC(=O)O)C(=O)O)C(=O)N[C@@H](CC(N)=O)C(=O)N[C@@H]([C@@H](C)O)C(=O)N[C@@H](C)C(=O)N[C@@H]([C@@H](C)O)C(=O)N1)[C@@H](C)O [Compound 80, [19CD]-isoGlu-R-C( )-NTAT-C( )-ATQRLADFLQRSSF-Gly(Me)-A-Ile(Me)-LSSTEVGSGTP-NH2] ({C20 diacid-γGlu}-RCNTATCATQRLADFLQRSSF[Sar]A[NMeI]LSSTEVGSGTP-NH2; disulfide 2-7) |
| 0.1 | 0.23 | A (A = >90%) | A (A = >90%) | A (A = >90%) | A (A = >90%) | CC[C@H](C)[C@@H](C(=O)N[C@@H](CC(C)C)C(=O)N[C@@H](CO)C(=O)N[C@@H](CO)C(=O)N[C@H](C(=O)N[C@@H](CCC(=O)O)C(=O)N[C@H](C(=O)NCC(=O)N[C@@H](CO)C(=O)NCC(=O)N[C@H](C(=O)N1C[C@H](O)C[C@H]1C(N)=O)[C@@H](C)O)C(C)C)[C@@H](C)O)N(C)C(=O)[C@H](C)NC(=O)CN(C)C(=O)[C@H](Cc1ccccc1)NC(=O)[C@H](CO)NC(=O)[C@H](CO)NC(=O)[C@H](CCCNC(=N)N)NC(=O)[C@H](CCC(N)=O)NC(=O)[C@H](CC(C)C)NC(=O)[C@H](Cc1ccccc1)NC(=O)[C@H](CC(=O)O)NC(=O)[C@H](C)NC(=O)[C@H](CC(C)C)NC(=O)[C@H](CCCNC(=N)N)NC(=O)[C@H](CCC(N)=O)NC(=O)[C@@H](NC(=O)[C@H](C)NC(=O)[C@@H]1CSSC[C@H](NC(=O)[C@H](CCCNC(=N)N)NC(=O)CC[C@H](NC(=O)CCCCCCCCCCCCCCCCCCC(=O)O)C(=O)O)C(=O)N[C@@H](CC(N)=O)C(=O)N[C@@H]([C@@H](C)O)C(=O)N[C@@H](C)C(=O)N[C@@H]([C@@H](C)O)C(=O)N1)[C@@H](C)O [Compound 81, [19CD]-isoGlu-R-C( )-NTAT-C( )-ATQRLADFLQRSSF-Gly(Me)-A-Ile(Me)-LSSTEVGSGT-Hyp-NH2] ({C20 diacid-γGlu}-RCNTATCATQRLADFLQRSSF[Sar]A[NMeI]LSSTEVGSGT[Hyp]-NH2; disulfide 2-7) |
